Test results as given in paper PMC5054364, “Neuroprotective pentapeptide CN-105 improves functional and histological outcomes in a murine model of intracerebral hemorrhage” (Scientific Reports, 2016).

Key:
Assay type in all cases: in vivo, C57BL/6J mice
[1] = system: murine model of collagenase-induced ICH; assay: Hemorrhage volume by SWI MRI after collagenase-induced ICH; conditions: mean ± standard error, n = 3–4/group
Procedure: (§1) Experiment 2. Hematoma volume. Hemorrhage volume was assessed by magnetic resonance imaging (MRI) at 2 hours post ICH (before treatment) and 24 hours post ICH. 3 saline- and 3 CN-105-treated animals were perfused at 24 hours post ICH, and brain hematoxylin and eosin (H&E) staining was performed. CN-105 or saline was given by tail vein injection at 2, 6, and 24 hours post-ICH.
(§2) Intrastriatal collagenase injection was used to induce ICH in mice, as previously described. Briefly, the trachea was intubated after anesthesia induction with 4.6% isoflurane, and the lungs were mechanically ventilated with 1.5% isoflurane in a mixture of 30%/70% O2/N2. Rectal temperature was maintained at 37 °C ± 0.2 °C by circulating warm water in an underbody waterbed. The animal’s head was secured in a stereotactic frame, and a midline scalp incision was made. After exposing the skull, a burr hole was created 2.2 mm left lateral to bregma, and a 0.5 μL syringe needle (Hamilton, Reno, NV, USA) was advanced to a depth of 3 mm from cortex. Type IV-S Clostridial collagenase (Sigma, St. Louis, MO, USA) was injected over 2 minutes (0.075 U in 0.4 μL normal saline). After closing the incision, animals were allowed to recover spontaneous ventilation, and were then extubated and given free access to food and water. […]

[2] = system: murine model of collagenase-induced ICH; assay: Histological hemorrhage volume (H&E staining) after ICH; conditions: 0.05 mg/kg i.v. tail vein at 2, 6 and 24 hours post-ICH; saline 7.97 ± 0.97, p = 0.66; mean ± standard error, n = 3/group
Procedure: as §1
Intrastriatal collagenase injection was used to induce ICH in mice, as previously described. Briefly, the trachea was intubated after anesthesia induction with 4.6% isoflurane, and the lungs were mechanically ventilated with 1.5% isoflurane in a mixture of 30%/70% O2/N2. Rectal temperature was maintained at 37 °C ± 0.2 °C by circulating warm water in an underbody waterbed. The animal’s head was secured in a stereotactic frame, and a midline scalp incision was made. […]
Histological hematoma volume was measured at 24 hours after injury to coincide with maximum hematoma expansion. […] Lesion volume was measured by digitally sampling stained sections with an image analyzer (M2 Turnkey System, Imaging Research, Inc., St. Catharines, Ontario, Canada). Lesion volumes (mm^3) were computed as running sums of lesion area multiplied by the known interval between sections (400 μm) over the extent of the lesion, and expressed as an orthogonal projection.

[3] = system: murine model of collagenase-induced ICH; assay: Neuroseverity score after ICH; conditions: 0.05 mg/kg i.v. at 4, 8 and 24 hours post ICH; p = 0.12; n = 14/group
Procedure: (§3) Experiment 4. Neurobehavioral assessment. Animals were randomized to vehicle (n = 14) or CN-105 (n = 14) groups, and evaluated for neurobehavioral function (neuroscore), vestibulomotor function (rotarod), and spatial learning (MWM). Mice received tail vein injections of vehicle or CN105 at 4, 8, and 24 hours post ICH.
Intrastriatal collagenase injection was used to induce ICH in mice, as previously described. Briefly, the trachea was intubated after anesthesia induction with 4.6% isoflurane, and the lungs were mechanically ventilated with 1.5% isoflurane in a mixture of 30%/70% O2/N2. Rectal temperature was maintained at 37 °C ± 0.2 °C by circulating warm water in an underbody waterbed. The animal’s head was secured in a stereotactic frame, and a midline scalp incision was made. After exposing the skull, a burr hole was created 2.2 mm left lateral to bregma, and a 0.5 μL syringe needle (Hamilton, Reno, NV, USA) was advanced to a depth of 3 mm from cortex. Type IV-S Clostridial collagenase (Sigma, St. Louis, MO, USA) was injected over 2 minutes (0.075 U in 0.4 μL normal saline). After closing the incision, animals were allowed to recover spontaneous ventilation, and were then extubated and given free access to food and water.
CN-105 (Ac-VSRRR-amide) was synthesized by Polypeptide Inc. (San Diego, CA) to a purity of >99%, and was dissolved in normal saline. […]

[4] = system: murine model of collagenase-induced ICH; assay: Rotarod testing (vestibulomotor function) after ICH; conditions: Days 1–5 after ICH; 0.05 mg/kg i.v. at 4, 8 and 24 hours post ICH; p = 0.0435; n = 14/group
Procedure: as §3
as §2, with “saline).” for “saline). After closing the incision, animals were allowed to recover spontaneous ventilation, and were then extubated and given free access to food and water.”
An automated rotarod (Ugo Basile, Comerio, Italy) was used to assess the effects of therapeutic intervention on vestibulomotor function. […] The average time lapse to fall from the rotating cylinder in the second set of trials was recorded as baseline latency. […] Average latency to fall from the rod was recorded.

## Ac-VSRRR-NH2 [CN-105, Ac-VSRRR-amide]
[1]; 0.05 mg/kg i.v. tail vein at 2, 6 and 24 hours post-ICH, saline 10.77 ± 1.70, p = 0.82
  hemorrhage volume by SWI MRI at 24 hours post ICH: 10.14 ± 1.92 mm^3
[1]; 2 hours after ICH induction, prior to treatment (baseline of the CN-105 group)
  hematoma volume by MRI at 2 hours after ICH: 9.93 ± 1.88 mm^3
[2]
  hemorrhage volume by H&E staining at 24 hours after ICH: 8.43 ± 0.15 mm^3
[3]
  neuroseverity scores, Day 1 to Day 5 after ICH versus vehicle: mild but not significant improvement
[4]
  rotarod motor functional recovery versus vehicle: significantly improved motor functional recovery
